In patent US20140303386A1, “COMPOSITIONS AND METHODS FOR ENHANCING LIPID PRODUCTION IN […] INDUCTION OF CELL CYCLE ARREST” (RUTGERS, THE STATE UNIVERSITY OF NEW JERSEY, priority 2011, published 2014):

How the values were obtained:
Format in all cases: cell-based
[1] = tested on: marine diatom Phaeodactylum tricornutum; assay: Photosynthetic health (Fv/Fm, chlorophyll per cell, a*); conditions: treated vs untreated cells
Description: (§1) Cultures were grown in continuous light at approximately 70 μmol quanta m^−2s^−1, in nutrient-replete conditions (F/2 media). […] The CDK inhibitor was applied when cells were growing exponentially (cell concentration was between 250,000-700,000 cells/ml).

[2] = tested on: marine diatom Phaeodactylum tricornutum; assay: Fatty acid content / synthesis per cell
Description: as §1

[3] = tested on: marine diatom Phaeodactylum tricornutum; assay: Protein synthesis in treated cells; conditions: treated vs untreated cells
Description: as §1

[4] = tested on: marine diatom Phaeodactylum tricornutum; assay: Cell cycle analysis (propidium iodide DNA stain, flow cytometry); conditions: higher dose of inhibitor
Description: as §1

## Nc1nc(OCC2CCCCC2)c2nc[nH]c2n1 [NU 2058, 6-(Cyclohexylmethoxy)-9H-purin-2-amine]
[1]
  photosynthetic capacity (Fv/Fm, chlorophyll per cell, a*): no appreciable differences
[2]; 7 μM, over a period of one day
  increase in fatty acid synthesis compared to untreated cells: 80%
[2]; higher dose of inhibitor
  fatty acid content per cell: higher fatty acid content per cell
[3]
  protein synthesis, lower than in untreated cells: about 18%
[4]
  percentage of cells arrested in G1: higher percentage of cells arrested in G1
